Test results reported in patent US11376231B2, “Compositions of bioactive fulvate fractions and uses thereof” (OMNI BIOCEUTICAL INNOVATIONS, INC., priority 2016, dated 2022).
Where two headings read alike, the source gives them in different places. Ends that are not written are not given here.

Columns and labels:
skin wounds = experiment: Screen of tigerinin-based peptides for wound-healing ability
Description: Two antimicrobial peptides (tigerinin-RC1: […] (SEQ ID NO: 9); tigerinin-RC2: […] (SEQ ID NO: 10)) have been previously identified from the skin secretions of Fejervarya cancrivora. […] Here, several peptides based on tigerinins are synthesized to screen candidates containing potential wound-healing ability.

human keratinocytes = experiment: Stimulation of keratinocytes: expression of antimicrobial peptides/polypeptides (Northern blot, ELISA, immunoblot, immunostaining); assay type: cell-based; settings: for expression of the antimicrobial peptides/polypeptides hCAP-18, hBD-3, NGAL, and SLPI: human keratinocytes; for mRNA for hBD-3 (induction): not detected in unstimulated cells
Method: SDS-PAGE and immunoblotting were performed with Bio-Rad systems according to instructions given by the manufacturer (Bio-Rad, Hercules, Calif.). For immunoblotting, after the transfer of proteins from the 14% polyacrylamide gels, the polyvinylidene difluoride (PVDF) membranes (Millipore, Bedford, Mass.) were blocked for 1 h with 5% skimmed milk in PBS. For detection of hCAP-18, NGAL, and SLPI, the PVDF membranes were incubated overnight with primary antibodies. The following day, the membranes were washed and incubated for 2 h with alkaline phosphatase-conjugated secondary antibodies (DAKO, Glostrup, Denmark) then washed and visualized by 5'-bromo-chloro-indolyl phosphate (Sigma-Aldrich) and nitro blue tetrazolium (Sigma-Aldrich). Medium from keratinocytes was extracted with MacroPrep CM Support beads (Bio-Rad) overnight at 4° C. The beads were subsequently washed and bound material was eluted with 30% acetic acid. The eluted material was dialyzed in 5% acetic acid and lyophilized before resuspension in sample buffer for acid urea (AU)-PAGE. AU-PAGE and immunoblotting were performed according to instructions given by the manufacturer (Hoeffer, San Francisco, Calif.). After transfer of proteins from the 12.5% acrylamide gels, the PVDF membranes were fixed for 30 min in TBS with 0.05% glutaraldehyde (Sigma-Aldrich), followed by blocking with Superblock Blocking Buffer (Pierce, Rockford, Ill.). For visualization of hBD-3, the PVDF membranes were incubated overnight with primary antibodies. The following day, the membranes were incubated for 2 h with HRP-conjugated secondary antibodies, (Pierce) and visualized by Immun-Star HRP luminal/enhancer and Immun-Star peroxide buffer (Bio-Rad). Cells were grown in serum-free keratinocyte medium from Clonetics (KGM-2 Bullet Kit; San Diego, Calif.) with bovine pituitary extract, transferrin, human epidermal growth factor (EGF), hydrocortisone, gentamicin, amphotericin B, and epinephrine, but without insulin. Cells were stimulated beginning 24 h after complete confluence was reached. Cells and medium was harvested 0, 3, 6, 12, 24, and 48 h after stimulation with IGF-I (100 ng/mL), TGF-α (50 ng/mL), TGF-β1 (10 ng/mL), hFGF (100 ng/mL), IGF-I/TGF-α, IL-1β (20 ng/mL), IL-6 (100 ng/mL), EGF (100 ng/mL), and INF-α (20 ng/mL). […] The RNA was transferred to a Hybond-N membrane (Amersham Pharmacia Biotech, Little Chalfont, U.K.) by capillary blotting and was fixed by UV irradiation. The filters were pre-hybridized for a minimum of 30 min at 42° C. in 10 mL of ULTRAhyb (Ambion, Austin, Tex.) and hybridized overnight at 42° C. after the addition of an additional 5 mL of ULTRAhyb containing the P-labeled probe. The membranes were washed twice for 5 min each time at 42° C. in 2×SSC (1×SSC=150 mM NaCl/15 mM sodium citrate, pH 7.0)/0.1% SDS, followed by twice for 15 min each time in 2×SSC/0.1% SDS, once for 15 min in 0.2×SSC/0.1% SDS, and once for 15 min in 0.1×SSC/0.1% SDS at 42° C. The blot was developed and quantified by a phosphorimager (Fuji Imager Analyzer BAS-2500, Image Reader version 1.4E, image Gauge version 3.01 software; Fuji, Stockholm, Sweden). The sizes of the mRNAs were determined by reference to 18S and 285 rRNA, which were visualized by ethidium bromide staining. The membranes were stripped by boiling in 0.1% SDS before re-hybridization. The probes used for hybridization were cDNA fragments radiolabeled with [α-P]dCTP using the Random Primers DNA Labeling System (Life Technologies). The probes NGAL, hCAP-18, hBD-2, and β-actin have previously been described. The probes for SLPI, hBD-1, and hBD-3 were amplified from cDNA from keratinocytes with the following primers: SLPI, [NT] II) NO: 1), and [NT] ID NO: 2); hBD-1, [NT] ID NO: 3), and [NT] ID NO: 4); and hBD-3, [NT] ID NO: 5), and [NT] ID NO: 6). The probe for hBD-4 was amplified from genomic DNA using the following primers: [NT] ID NO: 7) and [NT] II) NO: 8). PCR-amplified probes were cloned into plasmids and verified by DNA sequencing. […]

chronic wounds = test system: chronic wounds; design: key: N.S. = not statistically significant; settings: cited from earlier work
CBA Epidermal Culture = experiment: Tissue repair in human epidermal cell culture with 4-mm defect (bFGF, M-007); assay type: cell-based
Method: A 4-mm mucosal defect was surgically made in the CBA Epidermal Culture. The formulation Sol. of bFGF, M-007, and control saline was injected along the edge of the wound defect immediately after scratch. The control group received only phosphate-buffered saline vehicle.
By day 5, FGFR1-positive cells were seen below the stratum corneum, even in the control group. […] Each sample was repeated in duplicate, thus FIG. 2 represents the average of each sample. P1-2 are control plates 1 and 2 and are epidermal cell culture with no external treatment. P3-4 is epidermal cell culture treated with phosphate buffered saline only. P5-6 is epidermal cell culture treated with bFGF. P7-8 is epidermal cell culture treated with bFGF sol. No. 00376. […] No. 00321A. […] No. 0032113. […] No. 00321A @ 70/30 ratio. […] No. 00321A @ 30/70 ratio. […] No. 00321A 70/30 ratio. P21-22 is epidermal cell culture treated with bFGF sol. […] No. 00321A @50/50 ratio. P23-24 is epidermal cell culture treated with bFGF sol. […] No. 00321A @30/70 ratio.

Substance: c [WCKPKPKPRCH-NH2] (SEQ ID NO: 11) (not fully specified (bridges); also: cyclic, ring type and places not given here; listed as Fejervarya cancrivora) [M-007 fulvate isolated peptide, tigerinin-based synthesized small peptide]
- wound-healing ability (skin wounds): potent healer of skin wounds

Substance: IGF-I: insulin growth factor-1
- expression of hBD-1 relative to the housekeeping gene β-actin (human keratinocytes; 24 h): 3 fold
- expression of hBD-1 relative to the housekeeping gene β-actin (human keratinocytes; 48 h): 7 fold
- expression of the antimicrobial peptides/polypeptides hCAP-18, hBD-3, NGAL, and SLPI (human keratinocytes): induce or enhance
- hCAP-18 at the protein level (ELISA) and the mRNA level (human keratinocytes; keratinocytes): up-regulated
- mRNA for hBD-3 (induction) (human keratinocytes; keratinocytes): did not induce

Substance: IL-1B: interleukin-1B
- Results (chronic wounds; pressure (25), 0.01, 0.1, and 1 μg/cm^2 daily, Robson et al.): N.S.

Substance: bFGF: basic fibroblast growth factor
- collagen maturation (histologic analysis) (CBA Epidermal Culture): relatively faster
- granular tissue formation and re-epithelialization (CBA Epidermal Culture): significantly accelerated
- number and intensity of FGFR1-positive cells versus control group (CBA Epidermal Culture; day 5): greater than in the control group
- Results (chronic wounds; diabetic (17), 0.25 to 0.75 μg/cm^2 daily, Richard et al.): N.S.
- Results (chronic wounds; pressure (50), 1, 5, and 10 μg/cm^2, Robson et al.): N.S.

Substance: HGH: human growth hormone
- Results (chronic wounds; venous (37), 1 IU/cm^2 per week, Rasmussen et al.): N.S.

Substance: TGF-α: a transforming growth factor
- expression of the antimicrobial peptides/polypeptides hCAP-18, hBD-3, NGAL, and SLPI (human keratinocytes): induce or enhance
- mRNA for hBD-3 (induction) (human keratinocytes; keratinocytes): significantly induced
- hBD-3 in the medium by immunoblot (human keratinocytes; medium from stimulated keratinocytes, not in unstimulated cells): detected

Substance: EGF: epidermal growth factor (NSDSECPLSHDGYCLHDGVCMYIEALDKYACNCVVGYIGERCQYRDLKWWELR; UniProt P01133 971-1023, looked up)
- Results (chronic wounds; venous (44), 10 μg/mL twice per day, Falanga et al.): N.S.

Substance: GM-CSF: granulocyte-macrophage colony-stimulating factor
- Results (chronic wounds; venous + arterial (25), 400 μg injected once around the wound, da Costa et al.): N.S.
